Measurements published in the supplement of paper PMC10307832.

Columns and labels:
Experiment in all cases: relative viability (nuclei count vs DMSO), 5 days (fraction); higher = more cells survive
DM3189 = compound: C1CN(CCN1)C2=CC=C(C=C2)C3=CN4C(=C(C=N4)C5=CC=NC6=CC=CC=C56)N=C3 [DM3189]
In short: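 A plate was accepted only when its control CV was below 25% and the cells had doubled at least once. Viability is defined from nuclear counts as treated wells divided by vehicle wells, with the median taken across plates. That median covers lung cancer cell lines grown in 1536-well plates, dosed by pinning at five √10-spaced library-drug concentrations, and counted in MetaXpress from 4× Hoechst images after 5 days.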

DM3189 + Olaparib = compound: C1CN(CCN1)C2=CC=C(C=C2)C3=CN4C(=C(C=N4)C5=CC=NC6=CC=CC=C56)N=C3 [DM3189] + O=C(c1cc(Cc2n[nH]c(=O)c3ccccc23)ccc1F)N1CCN(C(=O)C2CC2)CC1 [Olaparib] (partner 8 µM)
In short: (§1)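 Five library-drug doses in √10 steps were combined with a fixed anchor-drug dose, or a single drug was given alone, by pin tool to lung cancer cell lines in 1536-well plates the day after seeding. Nuclei were stained and counted after 5 days. Relative viability is the nuclei count in treated wells over that in vehicle wells, taken as the median of duplicate plates.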

DM3189 + Palbociclib = compound: C1CN(CCN1)C2=CC=C(C=C2)C3=CN4C(=C(C=N4)C5=CC=NC6=CC=CC=C56)N=C3 [DM3189] + CC(=O)c1c(C)c2cnc(Nc3ccc(N4CCNCC4)cn3)nc2n(C2CCCC2)c1=O [Palbociclib] (partner 0.5 µM)
In short: as §1

DM3189 + Tozasertib = compound: C1CN(CCN1)C2=CC=C(C=C2)C3=CN4C(=C(C=N4)C5=CC=NC6=CC=CC=C56)N=C3 [DM3189] + Cc1cc(Nc2cc(N3CCN(C)CC3)nc(Sc3ccc(NC(=O)C4CC4)cc3)n2)n[nH]1 [Tozasertib] (partner 0.1 µM)
In short: as §1

DM3189 + AZD7762 = compound: C1CN(CCN1)C2=CC=C(C=C2)C3=CN4C(=C(C=N4)C5=CC=NC6=CC=CC=C56)N=C3 [DM3189] + NC(=O)Nc1cc(-c2cccc(F)c2)sc1C(=O)N[C@H]1CCCNC1 [AZD7762] (partner 0.2 µM)
In short: as §1

DM3189 + Vorinostat = compound: C1CN(CCN1)C2=CC=C(C=C2)C3=CN4C(=C(C=N4)C5=CC=NC6=CC=CC=C56)N=C3 [DM3189] + O=C(CCCCCCC(=O)Nc1ccccc1)NO [Vorinostat] (partner 1 µM)
In short: as §1

DM3189 + Trametinib = compound: C1CN(CCN1)C2=CC=C(C=C2)C3=CN4C(=C(C=N4)C5=CC=NC6=CC=CC=C56)N=C3 [DM3189] + CC(=O)Nc1cccc(-n2c(=O)n(C3CC3)c(=O)c3c(Nc4ccc(I)cc4F)n(C)c(=O)c(C)c32)c1 [Trametinib] (partner 0.02 µM)
In short: as §1

DM3189 + Decitabine = compound: C1CN(CCN1)C2=CC=C(C=C2)C3=CN4C(=C(C=N4)C5=CC=NC6=CC=CC=C56)N=C3 [DM3189] + Nc1ncn([C@H]2C[C@H](O)[C@@H](CO)O2)c(=O)n1 [Decitabine] (partner 2 µM)
In short: as §1

DM3189 + OSI-027 = compound: C1CN(CCN1)C2=CC=C(C=C2)C3=CN4C(=C(C=N4)C5=CC=NC6=CC=CC=C56)N=C3 [DM3189] + COc1cccc2cc(-c3nc([C@H]4CC[C@H](C(=O)O)CC4)n4ncnc(N)c34)[nH]c12 [OSI-027] (partner 0.5 µM)
In short: as §1

DM3189 + Pemetrexed = compound: C1CN(CCN1)C2=CC=C(C=C2)C3=CN4C(=C(C=N4)C5=CC=NC6=CC=CC=C56)N=C3 [DM3189] + Nc1nc2[nH]cc(CCc3ccc(C(=O)N[C@@H](CCC(=O)O)C(=O)O)cc3)c2c(=O)[nH]1 [Pemetrexed] (partner 0.2 µM)
In short: as §1

DM3189 + Dasatinib = compound: C1CN(CCN1)C2=CC=C(C=C2)C3=CN4C(=C(C=N4)C5=CC=NC6=CC=CC=C56)N=C3 [DM3189] + Cc1nc(Nc2ncc(C(=O)Nc3c(C)cccc3Cl)s2)cc(N2CCN(CCO)CC2)n1 [Dasatinib] (partner 0.075 µM)
In short: as §1

DM3189 + Phenformin = compound: C1CN(CCN1)C2=CC=C(C=C2)C3=CN4C(=C(C=N4)C5=CC=NC6=CC=CC=C56)N=C3 [DM3189] + N=C(N)NC(=N)NCCc1ccccc1 [Phenformin] (partner 250 µM)
In short: as §1

DM3189 + Luminespib = compound: C1CN(CCN1)C2=CC=C(C=C2)C3=CN4C(=C(C=N4)C5=CC=NC6=CC=CC=C56)N=C3 [DM3189] + CCNC(=O)c1noc(-c2cc(C(C)C)c(O)cc2O)c1-c1ccc(CN2CCOCC2)cc1 [Luminespib] (partner 0.01 µM)
In short: as §1

DM3189 + Foretinib = compound: C1CN(CCN1)C2=CC=C(C=C2)C3=CN4C(=C(C=N4)C5=CC=NC6=CC=CC=C56)N=C3 [DM3189] + COc1cc2c(Oc3ccc(NC(=O)C4(C(=O)Nc5ccc(F)cc5)CC4)cc3F)ccnc2cc1OCCCN1CCOCC1 [Foretinib] (partner 0.25 µM)
In short: as §1

Cell Line: NCI-H1648
- relative viability (DM3189; 0.08 µM): 0.798
- relative viability (DM3189; 0.253 µM): 0.947
- relative viability (DM3189; 0.8 µM): 0.962
- relative viability (DM3189; 2.53 µM): 0.661
- relative viability (DM3189 + Olaparib; first compound 0.08 µM): 1.16
- relative viability (DM3189 + Olaparib; first compound 0.253 µM): 0.881
- relative viability (DM3189 + Olaparib; first compound 0.8 µM): 0.749
- relative viability (DM3189 + Olaparib; first compound 2.53 µM): 0.862
- relative viability (DM3189 + Palbociclib; first compound 0.08 µM): 0.274
- relative viability (DM3189 + Palbociclib; first compound 0.253 µM): 0.226
- relative viability (DM3189 + Palbociclib; first compound 0.8 µM): 0.271
- relative viability (DM3189 + Palbociclib; first compound 2.53 µM): 0.364
- relative viability (DM3189 + Tozasertib; first compound 0.253 µM): 0.565
- relative viability (DM3189 + Tozasertib; first compound 0.8 µM): 0.39
- relative viability (DM3189 + Tozasertib; first compound 2.53 µM): 0.464
- relative viability (DM3189 + AZD7762; first compound 0.08 µM): 0.681
- relative viability (DM3189 + AZD7762; first compound 0.253 µM): 0.592
- relative viability (DM3189 + AZD7762; first compound 0.8 µM): 0.562
- relative viability (DM3189 + AZD7762; first compound 2.53 µM): 0.576
- relative viability (DM3189 + Vorinostat; first compound 0.08 µM): 0.453
- relative viability (DM3189 + Vorinostat; first compound 0.253 µM): 0.637
- relative viability (DM3189 + Vorinostat; first compound 0.8 µM): 0.421
- relative viability (DM3189 + Vorinostat; first compound 2.53 µM): 0.391
- relative viability (DM3189 + Trametinib; first compound 0.08 µM): 0.434
- relative viability (DM3189 + Trametinib; first compound 0.253 µM): 0.51
- relative viability (DM3189 + Trametinib; first compound 0.8 µM): 0.61
- relative viability (DM3189 + Trametinib; first compound 2.53 µM): 0.671
- relative viability (DM3189 + Decitabine; first compound 0.08 µM): 0.631
- relative viability (DM3189 + Decitabine; first compound 0.253 µM): 0.53
- relative viability (DM3189 + Decitabine; first compound 0.8 µM): 0.462
- relative viability (DM3189 + Decitabine; first compound 2.53 µM): 0.438
- relative viability (DM3189 + OSI-027; first compound 0.253 µM): 0.272
- relative viability (DM3189 + OSI-027; first compound 0.8 µM): 0.227
- relative viability (DM3189 + OSI-027; first compound 2.53 µM): 0.28
- relative viability (DM3189 + Pemetrexed; first compound 0.08 µM): 0.893
- relative viability (DM3189 + Pemetrexed; first compound 0.253 µM): 0.615
- relative viability (DM3189 + Pemetrexed; first compound 0.8 µM): 0.596
- relative viability (DM3189 + Pemetrexed; first compound 2.53 µM): 0.577

Cell Line: SW 900
- relative viability (DM3189; 0.08 µM): 1.06
- relative viability (DM3189; 0.253 µM): 0.694
- relative viability (DM3189; 0.8 µM): 0.882
- relative viability (DM3189; 2.53 µM): 0.887
- relative viability (DM3189 + Olaparib; first compound 0.08 µM): 0.801
- relative viability (DM3189 + Olaparib; first compound 0.8 µM): 0.886
- relative viability (DM3189 + Olaparib; first compound 2.53 µM): 0.897
- relative viability (DM3189 + Palbociclib; first compound 0.08 µM): 0.464
- relative viability (DM3189 + Palbociclib; first compound 0.8 µM): 0.45
- relative viability (DM3189 + Palbociclib; first compound 2.53 µM): 0.479
- relative viability (DM3189 + Tozasertib; first compound 0.08 µM): 0.604
- relative viability (DM3189 + Tozasertib; first compound 0.253 µM): 0.509
- relative viability (DM3189 + Tozasertib; first compound 0.8 µM): 0.446
- relative viability (DM3189 + Tozasertib; first compound 2.53 µM): 0.437
- relative viability (DM3189 + Dasatinib; first compound 0.08 µM): 0.733
- relative viability (DM3189 + Dasatinib; first compound 0.253 µM): 0.373
- relative viability (DM3189 + Dasatinib; first compound 0.8 µM): 0.449
- relative viability (DM3189 + Dasatinib; first compound 2.53 µM): 0.567
- relative viability (DM3189 + Phenformin; first compound 0.08 µM): 0.599
- relative viability (DM3189 + Phenformin; first compound 0.253 µM): 0.465
- relative viability (DM3189 + Phenformin; first compound 0.8 µM): 0.535
- relative viability (DM3189 + Phenformin; first compound 2.53 µM): 0.568
- relative viability (DM3189 + AZD7762; first compound 0.08 µM): 0.574
- relative viability (DM3189 + AZD7762; first compound 0.8 µM): 0.515
- relative viability (DM3189 + AZD7762; first compound 2.53 µM): 0.645
- relative viability (DM3189 + Vorinostat; first compound 0.08 µM): 0.469
- relative viability (DM3189 + Vorinostat; first compound 0.8 µM): 0.442
- relative viability (DM3189 + Vorinostat; first compound 2.53 µM): 0.383
- relative viability (DM3189 + Trametinib; first compound 0.08 µM): 0.818
- relative viability (DM3189 + Trametinib; first compound 0.8 µM): 0.832
- relative viability (DM3189 + Trametinib; first compound 2.53 µM): 0.941
- relative viability (DM3189 + Decitabine; first compound 0.08 µM): 0.467
- relative viability (DM3189 + Decitabine; first compound 0.8 µM): 0.424
- relative viability (DM3189 + Decitabine; first compound 2.53 µM): 0.407
- relative viability (DM3189 + OSI-027; first compound 0.08 µM): 0.618
- relative viability (DM3189 + OSI-027; first compound 0.253 µM): 0.544
- relative viability (DM3189 + OSI-027; first compound 0.8 µM): 0.584
- relative viability (DM3189 + OSI-027; first compound 2.53 µM): 0.606
- relative viability (DM3189 + Luminespib; first compound 0.08 µM): 0.174
- relative viability (DM3189 + Luminespib; first compound 0.253 µM): 0.166
- relative viability (DM3189 + Luminespib; first compound 0.8 µM): 0.156
- relative viability (DM3189 + Luminespib; first compound 2.53 µM): 0.196
- relative viability (DM3189 + Pemetrexed; first compound 0.08 µM): 0.505
- relative viability (DM3189 + Pemetrexed; first compound 0.8 µM): 0.44
- relative viability (DM3189 + Pemetrexed; first compound 2.53 µM): 0.581
- relative viability (DM3189 + Foretinib; first compound 0.08 µM): 0.996
- relative viability (DM3189 + Foretinib; first compound 0.253 µM): 0.875
- relative viability (DM3189 + Foretinib; first compound 0.8 µM): 0.794
- relative viability (DM3189 + Foretinib; first compound 2.53 µM): 0.728
